Reference: patent US11649222B2, “Compounds” (UNIVERSITETET I OSLO, priority 2016, dated 2023)
Several values for one entry are separate records, joined by “and”; a condition that tells them apart may be missing. Equal values may be shown once. Entries after “also recorded” stand apart in the source; their conditions may differ.

Tests used:
[1] = tested on: K. pneumoniae K66-45 and P. aeruginosa K34-7; test: Microbroth dilution MIC, carbapenem + inhibitor, two resistant clinical isolates; format: cell-based; details: Example 26 25 mg/L, three batches; meropenem and doripenem
Experimental: (§1) • Plate bacterial strain(s) on appropriate media: • Gram-negative bacteria with ESBLs or carbapenemases: green agar plates with 100 mg/L ampicillin • Gram-negative bacteria without β-lactamases: green agar plates • Gram-positive bacteria (Staphylococci and Enterococci): blood agar plates • Incubate o.n. at 37° C. Day 2: Prepare the Bacterial Inoculum: • Prepare a 0.5 McFarland suspension of bacteria in 0.85% NaCl. (Should be used within 15 min of preparation). • Dilute the 0.5 McFarland suspension 1:100 into MH broth. Check the inoculum by diluting the prepared bacterial suspension 1:100 (10 μl bacterial suspension+990 μl 0.85% NaCl). Plate 10 μl of the dilution on MH agar plates (×2). Incubate o.n. at 37° C., count the colonies and calculate the final CFU/ml inoculum in the plate by multiplying the average number of colonies with 10000 and divide by 2. The final inoculum should be between 3-7×10^5 CFU/ml. • Add 50 μl of the prepared bacterial suspension to each well in the microtiter plate except negative growth control. Preparation of Compounds/Antibiotics • Calculate the desired concentration-range and volume of the compounds/antibiotics in the assay. […] Dilute the stock solution in MH broth. Make subsequent 2-fold dilutions in MH broth of the desired concentrations if a concentration range is to be tested (remember the extra dilution factor in the assay plate). Always include extra volume for pipetting. Take into consideration stock solutions that are made in buffers that have an effect on bacterial growth (e.g. DMSO).

VIM-2 = VIM-2 (Escherichia coli, UniProt Q5U7L7); format: biochemical
Experimental: The eluent used was Chelex-treated HEPES 50 mM buffer, pH 7.5. […] In all experiments, 16 aliquots of 250 μL were taken from the PD-10 column runsout and enzyme activity was analysed. Enzyme activity was measured by adding Nitrocefin as a reporter substrate (final concentration of 50 μM).
To investigate if more extreme time-dependent and concentration-dependent conditions could restore enzyme activity, aliquots having final concentrations of 30 nM column-treated enzyme and 1000 μM Zn^2+ on ice and at room temperature over prolonged time.

[2] = tested on: meropenem-resistant K. pneumonia and E. coli; test: Checkerboard MIC, all MDR isolates; format: cell-based; details: for some of the strains
Experimental: A checkerboard MIC assay was using the broth dilution method according to CLSI guidelines. […] Dilutions to 4 mg/ml was performed by adding+4.75 ml sterile saline to 0.25 ml of the stock solution, and dilutions to 512 μg/ml was performed by adding 10.9 ml MH-broth to the 4 mg/ml solution. Inoculums of bacterial strains as described in Table 4 were prepared by suspending fresh overnight colonies from 5% horse blood agar were to a turbidity of 0.5 McFarland and further diluted to 1×10^6 CFU/ml in MH-broth. Aliquots of 50 μl of MH-broth were added to each well of polystyrene microtiter plates. […] The plates were incubated at 35° C., 16-20 hours.

E. coli (NDM) = test: Microbroth dilution MIC of meropenem ± 25 mg/L inhibitor; format: cell-based; details: E. coli NDM (several strains)
Experimental: as §1

K. pneumoniae (NDM) = test: as above; format: cell-based; details: K. pneumoniae NDM (several strains)
Experimental: as §1

rH glyoxylase II = rH glyoxylase II (Homo sapiens, UniProt Q16775); test: Interaction with zinc-containing human enzyme; format: biochemical; details: 62.5-500 μM, 30 min, 25° C.
[3] = Solution stability on storage, measured indirectly by MIC; format: physicochemical; details: solution stored at 2-8° C.; MIC at 25 mg/L inhibitor
Source text: P. aeruginosa harboring VIM-2 and K. pneumonia bearing NDM-1 was used as two indicator strains.

[4] = tested on: resistant gram-negative MBL-based bacteria; test: MICx: adjuvant concentration giving carbapenem MIC ≤ 2 mg/L; format: cell-based; details: lowest concentration of compound X that results in a MIC value of ≤ 2 mg/L for carbapenem antibiotics
Summary of the method: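 Broth microdilution in MH broth; 0.5 McFarland suspension diluted 1:100 to a final inoculum of 3-7×10^5 CFU/ml. Compounds tested as 2-fold dilutions in MH broth. Carbapenemase/ESBL strains were pre-grown overnight at 37 °C on agar containing 100 mg/L ampicillin.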

[5] = tested on: strains producing Klebsiella pneumoniae carbapenemases (KPC); test: Adjuvant activity with a carbapenem against KPC-producing strains; format: cell-based
[6] = tested on: P. aeruginosa K34-7 (VIM-2); test: Microbroth dilution MIC of carbapenem with/without inhibitor; format: cell-based; details: Example 26 25 mg/L
Summary of the method: (§2)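 Broth microdilution in MH broth with 2-fold compound/antibiotic dilution series. Inoculum from a 0.5 McFarland suspension diluted 1:100, final 3-7×10^5 CFU/ml confirmed by colony count. Strains pre-grown overnight at 37° C, ampicillin 100 mg/L plates for ESBL/carbapenemase producers.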

[7] = tested on: K. pneumoniae K66-45 (NDM-1); test: as above; format: cell-based
Summary of the method: as §2

E. coli K71-77 (NDM-1) = test: Microbroth dilution MIC of meropenem with/without inhibitor; format: cell-based
Experimental: as §1
(§3) This experimental design was used for the results in Tables 2-6 below.

E. coli 50639799 (VIM-1) = test: as above; format: cell-based
Experimental: as §1, §3

[8] = tested on: K. pneumoniae A3-81 (VIM-1); test: as above; format: cell-based
Experimental: as §1, §3

Structure (SMILES)	factor of potentiation of carbapenems [1]	enzyme activity restored (VIM-2; 15 nM impaired enzyme spiked with ZnSO4 0-100 μM) [%]	residual enzyme activity (VIM-2; 50 nM VIM-2 + 140 mg/L Example 26, 1 hour on ice, PD-10 eluate fraction 5) [%]	irreversibility of VIM-2 inhibition (VIM-2; purified VIM-2, PD-10 column)	amplification of the effect of meropenem [2] [times]	MIC meropenem + 25 mg/L Example 26 (E. coli (NDM)) [µg/mL]	MIC meropenem + 25 mg/L Example 26 (K. pneumoniae (NDM)) [µg/mL]	interaction with rH glyoxylase II (rH glyoxylase II)	storage time at which a loss of activity was observed [3] [months]	MICx [4] [µM]	adjuvant activity with a carbapenem against KPC-producing strains [5]	MIC of doripenem (DOR) + Example 26 [6] [µg/mL]	MIC of doripenem (DOR) + Example 26 ([7]; Example 26 25 mg/L, K. pneumoniae K66-45 NDM-1)	MIC ([7]; Klebsiella pneumoniae, inhibitor 31.25 μM, 50 μM and 100 μM, K. pneumoniae K66-45, read-out: MIC of MEM in the presence of inhibitor) [µg/mL]	MIC of meropenem ([7]; inhibitor 31.25 μM, K. pneumoniae K66-45 NDM-1)	MIC of meropenem ([7]; inhibitor 50 μM, K. pneumoniae K66-45 NDM-1)	Meropenem activity without inhibitor (E. coli K71-77 (NDM-1)) [mg/L]	Meropenem activity without inhibitor (E. coli 50639799 (VIM-1)) [mg/L]	Meropenem activity without inhibitor [8] [mg/L]
CN(C[C@H](O)[C@@H](O)[C@H](O)[C@H](O)CO)C(=O)c1ccc(CN(Cc2ccccn2)Cc2ccccn2)nc1 [Example 26, 6-((bis(pyridin-2-ylmethyl)amino)methyl)-N-methyl-N-((2S,3R,4R,5R)-2,3,4,5,6-pentahydroxyhexyl)nicotinamide]	32-256 times	40	33	irreversibly inhibits VIM-2; also recorded: irreversibly inhibited	> 1000	0.125	0.06	does not interact with rH glyoxylase II	> 8	31	does not show activity	1	0.25 mg/L and 0.125 mg/L (2×)	0.125	0.125	0.125			
C[C@@H](O)[C@H]1C(=O)N2C(C(=O)O)=C(S[C@@H]3CN[C@H](C(=O)N(C)C)C3)[C@H](C)[C@H]12 [meropenem, reference compound]																	1 to 8	8 to 32	64 to 256
